Where a SMILES comes first, the peptide text is derived from it. [ ]: non-standard residue; d: D form. The star is where a group is joined. Tic = O=C(O)[C@@H]1Cc2ccccc2CN1; NHPhenethyl = c1ccc(CCN*)cc1
Key:
mouse tail flick test = conditions: J. Kamei et al. 1995; cited from earlier work
mice = conditions: S. D. Comer et al. 1993; cited from earlier work
guinea pig ileum (GPI) = test: Guinea pig ileum (GPI) bioassay: inhibition of electrically evoked contractions; assay type: cell-based; conditions: normalized with [Leu5]enkephalin standard, effect primarily μ-mediated
Procedure: (§1) Bioassays based on inhibition of electrically evoked contractions of the mouse vas deferens (MVD) and of the guinea pig ileum (GPI) were performed. In the GPI assay the opioid effect is primarily mediated by μ opioid receptors, whereas in the MVD assay the inhibition of the contractions is mostly due to interaction with δ opioid receptors.
(§2) The GPI and MVD bioassays were carried out as reported in P. W. Schiller et al., Biochem. Biophys. Res. Commun. 85, 1332-1338 (1978) and J. DiMaio et al., J. Med. Chem. 25, 1432-1438 (1982). A log-dose response curve was determined with [Leu^5 ]enkephalin as standard for each ileum and vas preparation, and IC50 values of the compounds being tested were normalized according to A. A. Waterfield et al., Eur. J. Pharmacol. 58, 11-18 (1979).

δ opioid receptor [1] = target: T1, δ opioid receptor (Rattus norvegicus, UniProt P33533); test: δ opioid receptor binding assay, displacement of [3H]DSLET from rat brain membranes; conditions: for Ki: rat brain membranes, [3H]DSLET 1.0 nM, Cheng-Prusoff; for Ki^μ/Ki^δ: δ versus μ receptor selectivity
T1 construct: Male Sprague-Dawley rats (300-350 g) from the Canadian Breeding Laboratories were decapitated and after removal of the cerebellum the brains were homogenized; from tissue; host or cells: rat brain (without cerebellum) membranes, male Sprague-Dawley
T1 sequence (P33533 whole entry): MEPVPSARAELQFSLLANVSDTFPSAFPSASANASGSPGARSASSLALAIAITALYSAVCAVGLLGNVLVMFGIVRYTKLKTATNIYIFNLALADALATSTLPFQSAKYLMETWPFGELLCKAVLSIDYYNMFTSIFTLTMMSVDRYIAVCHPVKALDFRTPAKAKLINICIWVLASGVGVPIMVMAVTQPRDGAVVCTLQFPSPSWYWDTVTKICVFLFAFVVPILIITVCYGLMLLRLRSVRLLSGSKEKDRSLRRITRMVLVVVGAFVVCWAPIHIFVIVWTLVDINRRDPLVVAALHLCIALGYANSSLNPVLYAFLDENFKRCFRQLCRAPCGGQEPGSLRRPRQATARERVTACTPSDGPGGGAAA
Procedure: (§3) μ and δ opioid receptor binding constants (Ki^μ,Ki^δ) of the compounds were determrined by displacement of relatively selective μ and δ radioligands from binding sites in rat brain membrane preparations calculated from the measured IC50 values on the basis of the equation by Cheng and Prusoff, (Y. C. Cheng and W. H. Prusoff Biochem. Pharmnacol. 22, 3099-3102 (1973)).
The μ-, δ- and κ-opioid receptor affinities of all new analogs were determined in binding assays based on displacement of μ-, δ- and κ-selective radioligands from rat brain membrane binding sites. In the case of κ-ligands guinea pig brain homogenates were used, since the relative proportion of κ-binding sites is higher in guinea pig brain than in rat brain. The experimental procedure being used in our laboratory represents a modified version of the binding assay described by Pasternak et al. (Mol. Pharnacol. 11, 340-351 (1975)). Male Sprague-Dawley rats (300-350 g) from the Canadian Breeding Laboratories were decapitated and after removal of the cerebellum the brains were homogenized in 30 volumes of ice-cold standard buffer (50 mnM Tris HCl , pH 7.7). After centrifugation at 30,000×g for 30 min at 4° C. the membranes were reconstituted in the original volume of standard buffer and incubated for 30 min at 37° C. (to release bound endogenous ligands). Subsequent centrifugation and resuspension of the pellet in the initial volume of fresh standard buffer yielded the final membrane suspension. Aliquots (2 ml) of the membrane preparations were incubated for 1-2 h at 25° C. with 1 ml standard buffer containing the peptide to be tested and one of the following radioligands at the final concentration indicated: [^3 H]DAMGO, μ-selective, 0.7 nM; […]; and [^3 H]U69,563, κ-selective, 0.5 nM. The incubation was terminated by filtration through Whatman GF/B filters under vacuum at 4° C. Following two washings with 5 ml portions of ice-cold standard buffer the filters were transferred to scintillation vials and treated with 1 ml Protosol (New England Nuclear) for 30 min prior to addition of 0.5 ml acetic acid and 10 ml Aquasol (New England Nuclear). After shaking for 30 min the vials were counted at an efficiency of 40-45%. All experiments were performed in duplicate and repeated at least three times. Specific binding of each of the three radioligands was defined by performing incubations in the presence of cold DAMGO, DSLET and U69,563, respectively, at a concentration of 1 micromolar. Values of half-maximal inhibition (IC50) of specific binding were obtained graphically from semilogarithmic plots. From the measured IC50-values, binding inhibition constants (Ki) were calculated based on Cheng and Prusoff's equation (Biochem. Pharmacol. 22, 3099-3102 (1973)). Ratios of the Ki -values determined in the μ-, δ- and κ-representative binding assays are a measure of the receptor selectivity of the compound under investigation (e.g. Ki^μ /Ki^μ indicates the selectivity for δ-receptors versus μ-receptors).

μ opioid receptor = target: T2, μ opioid receptor (Rattus norvegicus, UniProt P33535); test: μ opioid receptor binding assay, displacement of [3H]DAMGO from rat brain membranes; conditions: [3H]DAMGO 0.7 nM, Cheng-Prusoff
T2 construct: Male Sprague-Dawley rats (300-350 g) from the Canadian Breeding Laboratories were decapitated and after removal of the cerebellum the brains were homogenized; from tissue; host or cells: rat brain (without cerebellum) membranes, male Sprague-Dawley
T2 sequence (P33535 whole entry): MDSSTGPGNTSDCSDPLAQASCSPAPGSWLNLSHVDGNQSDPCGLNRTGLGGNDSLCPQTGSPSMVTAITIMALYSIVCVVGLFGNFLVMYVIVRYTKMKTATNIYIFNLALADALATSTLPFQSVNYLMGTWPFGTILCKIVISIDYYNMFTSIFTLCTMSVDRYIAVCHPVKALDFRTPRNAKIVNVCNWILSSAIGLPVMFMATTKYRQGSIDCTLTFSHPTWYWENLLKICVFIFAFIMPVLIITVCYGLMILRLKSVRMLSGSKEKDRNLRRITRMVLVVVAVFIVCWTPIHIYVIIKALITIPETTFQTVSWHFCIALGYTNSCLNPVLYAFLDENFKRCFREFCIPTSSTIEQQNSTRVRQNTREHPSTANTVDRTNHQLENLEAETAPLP
Procedure: as §3
The μ-, δ- and κ-opioid receptor affinities of all new analogs were determined in binding assays based on displacement of μ-, δ- and κ-selective radioligands from rat brain membrane binding sites. In the case of κ-ligands guinea pig brain homogenates were used, since the relative proportion of κ-binding sites is higher in guinea pig brain than in rat brain. The experimental procedure being used in our laboratory represents a modified version of the binding assay described by Pasternak et al. (Mol. Pharnacol. 11, 340-351 (1975)). Male Sprague-Dawley rats (300-350 g) from the Canadian Breeding Laboratories were decapitated and after removal of the cerebellum the brains were homogenized in 30 volumes of ice-cold standard buffer (50 mnM Tris HCl , pH 7.7). After centrifugation at 30,000×g for 30 min at 4° C. the membranes were reconstituted in the original volume of standard buffer and incubated for 30 min at 37° C. (to release bound endogenous ligands). Subsequent centrifugation and resuspension of the pellet in the initial volume of fresh standard buffer yielded the final membrane suspension. Aliquots (2 ml) of the membrane preparations were incubated for 1-2 h at 25° C. with 1 ml standard buffer containing the peptide to be tested and one of the following radioligands at the final concentration indicated: [^3 H]DAMGO, μ-selective, 0.7 nM; [^3 H]DSLET, […] nM; and [^3 H]U69,563, κ-selective, 0.5 nM. The incubation was terminated by filtration through Whatman GF/B filters under vacuum at 4° C. Following two washings with 5 ml portions of ice-cold standard buffer the filters were transferred to scintillation vials and treated with 1 ml Protosol (New England Nuclear) for 30 min prior to addition of 0.5 ml acetic acid and 10 ml Aquasol (New England Nuclear). After shaking for 30 min the vials were counted at an efficiency of 40-45%. All experiments were performed in duplicate and repeated at least three times. Specific binding of each of the three radioligands was defined by performing incubations in the presence of cold DAMGO, DSLET and U69,563, respectively, at a concentration of 1 micromolar. Values of half-maximal inhibition (IC50) of specific binding were obtained graphically from semilogarithmic plots. From the measured IC50-values, binding inhibition constants (Ki) were calculated based on Cheng and Prusoff's equation (Biochem. Pharmacol. 22, 3099-3102 (1973)). Ratios of the Ki -values determined in the μ-, δ- and κ-representative binding assays are a measure of the receptor selectivity of the compound under investigation (e.g. Ki^μ /Ki^μ indicates the selectivity for δ-receptors versus μ-receptors).

δ opioid receptor [2] = conditions: reported at 23rd European Peptide Symposium 1994; cited from earlier work
mouse vas deferens (MVD) = test: Mouse vas deferens (MVD) bioassay: inhibition of electrically evoked contractions; assay type: cell-based; conditions: for GPI/MVD IC50 ratio: ratio of GPI IC50 to MVD IC50
Procedure: as §1, §2

[3] = inhibition of electrically evoked contractions, normalized with [Leu5]enkephalin standard, effect mostly δ-mediated

Row | Compound | antinociceptive effect (mouse tail flick test) | toxicity in mice (mice) | IC50 (guinea pig ileum (GPI)) | Ki (δ opioid receptor [1]) | Ki^μ/Ki^δ (δ opioid receptor [1]) | Ki (μ opioid receptor) | δ agonist / antagonist properties (δ opioid receptor [2]) | IC50 (mouse vas deferens (MVD); [3]) | GPI/MVD IC50 ratio (mouse vas deferens (MVD)) | δ opioid agonist character (full / partial) (mouse vas deferens (MVD); conclusion from MVD and GPI assays) | MVD IC50 (mouse vas deferens (MVD); [3])
1 | CN1CC[C@]2(c3cccc(O)c3)Cc3nc4ccccc4cc3C[C@H]2C1 [TAN-67, 2-methyl-4α,α-(3-hydroxyphenyl)-1,2,3,4,4a,5,12,12aα-octahydroquinolino[2,3,3-g]isoquinoline] | no significant antinociceptive effect |  |  |  |  |  |  |  |  |  | 
2 | C=CCN1C[C@H](C)N([C@H](c2ccc(C(=O)N(CC)CC)cc2)c2cccc(O)c2)C[C@H]1C (racemic) [BW 373U86, (±)-4-(a-R*)-a-(2S*,5R*)-4-allyl-2,5-dimethyl-1-piperazinyl)-3-hydroxybenzyl)-N,N-diethylbenzamide] |  | produced significant toxicity, manifested behaviorally as convulsions and barrel rolling |  |  |  |  |  |  |  |  | 
3 | N[C@@H](Cc1ccc(O)cc1)C(=O)N1Cc2ccccc2C[C@H]1C(=O)NCCc1ccccc1 [H-Tyr-Tic-NH--CH2 --CH2 --Ph, reference compound] (H-Tyr-[Tic]-NHPhenethyl) |  |  | 2120 nM | 5.22 ± 0.02 nM | 13.2 | 69.1 nM | full, but only moderately potent δ agonist | 82 ± 10 nM | 25.9 |  | 
4 | N[C@@H](Cc1ccc(O)cc1)C(=O)N1Cc2ccccc2C[C@H]1C(=O)NCC(CO)c1ccccc1 (single isomer, unassigned) [Example 27] |  |  | 526 ± 51 nM | 1.26 ± 0.11 nM | 55.8 | 70.3 ± 2.3 nM |  | 13.6 ± 2.2 nM | 38.7 |  | 
5 | CCOC(=O)C(CNC(=O)[C@@H]1Cc2ccccc2CN1C(=O)[C@@H](N)Cc1ccc(O)cc1C)c1ccccc1 (single isomer, unassigned) [Example 31] |  |  | 869 ± 209 nM | 1.22 ± 0.04 nM | 65.3 | 79.7 ± 2.3 nM |  | 2.24 ± 0.33 nM | 388 |  | 
6 | N[C@@H](Cc1ccc(O)cc1)C(=O)N1Cc2ccccc2C[C@H]1C(=O)NCCc1ccccc1[N+](=O)[O-] [Example 29] |  |  | 1850 ± 540 nM | 7.7 ± 0.45 nM | 46.1 | 355 ± 13 nM |  | 29.1 ± 10.6 nM | 63.6 |  | 
7 | NC(Cc1ccc(O)cc1)C(=O)N1Cc2ccccc2CC1C(=O)NCC(c1ccccc1)c1ccccc1 (stereo not drawn) [Example 1, H-Tyr-Tic-NH--CH2 --CH--(Ph)2] |  |  | 3630 ± 470 nM | 0.981 ± 0.038 nM | 29.4 | 28.8 ± 4.2 nM |  | 3.77 ± 1.05 nM | 963 |  | 
8 | N[C@@H](Cc1ccc(O)cc1)C(=O)N1Cc2ccccc2C[C@H]1C(=O)NCC(c1ccc(Cl)cc1)c1ccc(Cl)cc1 [Example 26] |  |  | > 10000 nM | 2.82 ± 0.07 nM | 553 | 1560 ± 60 nM |  | 397 ± 33 nM | > 25.2 |  | 
9 | Nc1ccc(C(CNC(=O)[C@@H]2Cc3ccccc3CN2C(=O)[C@@H](N)Cc2ccc(O)cc2)c2ccc(N)cc2)cc1 [Example 25] |  |  | > 10000 nM | 2.67 ± 0.83 nM | 2000 | 5340 ± 700 nM |  | 7.81 ± 0.48 nM | > 1280 |  | 
10 | CCOC(=O)C(CNC(=O)[C@@H]1Cc2ccccc2CN1C(=O)[C@@H](N)Cc1ccc(O)cc1C)c1ccccc1 (single isomer, unassigned) [Example 30] |  |  | 826 ± 183 nM | 1.63 ± 0.27 nM | 101 | 164 ± 11 nM |  | 1.62 ± 0.12 nM | 510 |  | 
11 | NC(=O)C(CNC(=O)[C@@H]1Cc2ccccc2CN1C(=O)[C@@H](N)Cc1ccc(O)cc1)c1ccccc1 (single isomer, unassigned) [Example 18] |  |  | > 10000 nM | 22.8 ± 2.5 nM | 8.38 | 191 ± 19 nM |  |  |  | partial δ agonists | partial agonist

Source: patent US6150335A, “Tic-containing opioid dipeptide derivatives useful as analgesics” (Astra AB, priority 1996, dated 2000)
